Assay results from patent US12215067B2, “Chemical compounds targeting the eye and use thereof in the treatment of eye diseases” (BIOPHYTIS, priority 2019, dated 2025).

Tests used:
[1] = tested on: primary cultures of RPE of adult pigs; test: In vitro photoprotection of RPE cells illuminated with blue light in the presence of A2E; type: cell-based, pig; details: Sus scrofa, RPE, A2E 30 μM, survival 24 h after illumination; for viability at 5 µM: 5 μM compound; for viability at 10 µM: 10 μM compound; for viability at 20 µM: 20 μM compound
Description: In addition to better distribution in the target-tissue, selecting new compounds must also be based on good photo-protective activity that limits the loss of the cells of the RPE and thus reducing the retinal degeneration observed during the AMD and other degenerative diseases such as Retinitis pigmentosa and Stargardt's disease. At the cellular level, on cultures of cells the RPE coming from pig retina, Fontaine et al. (2016) have shown that a treatment with norbixin (BIO201) protects the cells of the RPE against apoptosis following an illumination in the presence of A2E (80% survival 24 h after exposure). This same screening test according to the percentage of photoprotection was used so as to determine its modulation by and the chemical compounds derived from norbixin (C) object of the present invention in comparison with the photo-protective effect of norbixin and characterize these modulations from a statical standpoint.
The test in vitro described hereinabove and intended to study the photo-protective effect of norbixin was used so as to quantify the photo-protective effects of the various chemical compounds derived from norbixin (C) on the cells of the RPE illuminated with blue light in the presence of A2E (FIG. 3). The photo-protective effect of the molecules was evaluated in a phototoxicity cellular model induced by treatment by A2E followed by an illumination with blue light. The term “blue radiation” means the radiation corresponding to the blue band of the visible light spectrum, i.e. of a wavelength comprised between 435 and 490 nm. This model uses primary cultures of RPE of adult pigs. The cell survival is quantified thanks to a test of cellular viability. At −48 h the compounds to be tested (in solution at 5 mM in the DMSO) are added to obtain the final concentrations of 1 to 20 μM) then at −19 h of the A2E (final concentration 30 μM) and the cells (time 0 h) are illuminated. 24 h after the survival of the cells is measured. The acquisition of images, as well as the processing thereof, are carried out using a fluorescence microscope controlled by the Metamorph software and a dedicated quantification program. The experiments are conducted on a 96-well microplate in quadruplicate and the experiment is reproduced at least four times. The results are expressed in the form of a ratio representing the number of living cells in the wells treated by the molecules to be tested, divided by the number of living cells in the controlled wells (treated by the dilution medium without A2E). This test made it possible hereinabove to reveal the photo-protective activity of norbixin (Fontaine et al. 2016).

[2] = Pharmacokinetic study via oral administration in mice, ocular concentrations; type: in vivo, mice C57BL/6; details: for Tmax: C57BL/6, mouse, eye, po; for Eye Exposure 50 mg/kg p.o. AUC: Table 3, repeats the eye exposure of Table 2
Protocol: (§1) The pharmacokinetic study of the chemical compounds (C) following the oral administration thereof was conducted using mice C57BL/6 (January, 53940 The Genest Saint Isle, France). The chemical compounds derived from norbixin (C) were administered at a dose of 50 mg/kg of body weight. After administration, the blood was sampled at the tail at t=0.25 h; 0.5 h; 1 h; 3 h; 6 h and 8 h. The blood samples were centrifuged and the plasmas taken. The dosage of the plasma samples made it possible to determine pharmacokinetic parameters, namely Cmax, which corresponds to the maximum concentration observed after the administration of the molecule, Tmax which is the time required to reach maximum concentration after administration of the molecule and the AUC: the area under the curve which corresponds to the plasma exposure (FIG. 2).
In parallel, the ocular concentrations of the chemical compounds derived from norbixin (C) were dosed in the following way (FIG. 1): both eyes of each mouse were taken in Precellys tubes and stored at −80° C. until the time of dosing. The eyes are then ground in the Precellys tubes with a bench homogenizer, Fast-prep (Fischer Scientific, Hampton, United States) in a mixture of organic solvents, in a first step with 500 μL of chloroform/methanol (1/1, v/v) then 500 μL of chloroform/dichloromethane (1/1, v/v). The supernatants are recovered at each step and transferred to a 96-well plate of 2 mL.
For the quantification of the chemical compounds C, a calibration curve is carried out with 8 standards (5 to 5,000 ng/mL) in the same organic solvent mixtures and transferred (100 μL) to the 96-well plate of 2 mL.
The supernatants and standards are evaporated in a EZ2 (Genevac, Ipswich, United Kingdom), without heating, then taken with 100 μL of DMSO/methanol (20:80, v/v) before being transferred to a 96-well plate of 200 μL.
(§2) The LC-MSMS analysis is carried out with a HPLC 1200 Infinity chain (Agilent Technologies, Santa-Clara, United States), a UV detector and a mass spectrometer QQQ6420 (Agilent Technologies Santa-Clara, United States). The injection volume is 5 μL. The chemical compounds C are eluted on an inverse phase column C18 (2.1*50 mm, particles 3 μm; Ace-C18-Excel, AIT) with a gradient of acetonitrile and water (containing 0.1% formic acid) and a flow rate of 0.3 mL/min. The conditions of the gradient can change according to the chemical compound C analyzed. The UV detector analyzes at 460 nm and the mass spectrometer analyzed in Mode MRM—Positive.
(§3) Table 2 discloses the pharmacokinetic results of the chemical compounds C following the administration p.o. 50 mg/kg in D-α-Tocopheryl polyethylene glycol 1000 succinate (VitE-TPGS) 20% in a sodium bicarbonate buffer (0.1M).

[3] = Pharmacokinetic study via oral administration in mice, plasma concentrations; type: in vivo, mice C57BL/6; details: C57BL/6, mouse, in vivo, po, 50 mg/kg
Protocol: as §1, §2, §3

[4] = mice, p.o. 50 mg/kg in VitE-TPGS 20% in sodium bicarbonate buffer (0.1M)

| Tmax [2, 4] [min] | Eye Exposure 50 mg/kg p.o. AUC [2] [ng · h/eye] | Eye CMax [2, 4] [ng/eye] | Cmax [3] [ng/mL] | Plasma Exposure [3] [µg·h/mL] | Tmax [3] [min] | Eye Exposure ([2]; mice, p.o. 50 mg/kg in VitE-TPGS 20% in sodium bicarbonate buffer (0.1M), area under the curve) [ng · h/eye] | Structure (SMILES) | viability at 5 µM [1] [%] | viability at 10 µM [1] [%] | viability at 20 µM [1] [%] |
| --- | --- | --- | --- | --- | --- | --- | --- | --- | --- | --- |
| 60 | 533.2 | 64.3 | 30400 | 108.1 | 60 | – | CC(=C/C=C/C(C)=C/C=C/C=C(C)/C=C/C=C(C)/C=C/C(=O)NCCN1CCOCC1)/C=C/C(=O)O [C10, 1-[2-morpholinoethanamido](2E,4E,6E,8E,10E,12E,14E,16Z,18E)-4,8,13,17-tetramethylicosa-2,4,6,8,10,12,14,16,18-nonaenedioate] | 15.5 | 27.4 | 80.3 |
| 60 | 538.4 | 50.7 | 29300 | 186.3 | 30 | – | CC(=C/C=C/C(C)=C/C=C/C=C(C)/C=C/C=C(C)/C=C/C(=O)N1CCC(O)CC1)/C=C/C(=O)O [C12, 1-[4-hydroxypiperidinamido](2E,4E,6E,8E,10E,12E,14E,16Z,18E)-4,8,13,17-tetramethylicosa-2,4,6,8,10,12,14,16,18-nonaenedioate] | 7.7 | 14.3 | 59.6 |
| 60 | 461.1 | 60.7 | 27900 | 139.7 | 30 | – | CC(=C/C=C/C(C)=C/C=C/C=C(C)/C=C/C=C(C)/C=C/C(=O)NCC(C)(C)N1CCOCC1)/C=C/C(=O)O [C13, 1-[2-methyl-2-(4-morpholinyl)propylamido](2E,4E,6E,8E,10E,12E,14E,16Z,18E)-4,8,13,17-tetramethylicosa-2,4,6,8,10,12,14,16,18-nonaenedioate] | 8 | 0.5 | 8 |
| 60 | 322.5 | 43.2 | 19000 | 162.2 | 30 | – | CC(=C/C=C/C(C)=C/C=C/C=C(C)/C=C/C=C(C)/C=C/C(=O)N1CCC(CO)CC1)/C=C/C(=O)O [C14, 1-[4-hydroxymethylpiperidinamido](2E,4E,6E,8E,10E,12E,14E,16Z,18E)-4,8,13,17-tetramethylicosa-2,4,6,8,10,12,14,16,18-nonaenedioate] | 3.1 | 46.8 | 79.3 |
| 120 | 421.9 | 80.4 | 35000 | 160.4 | 60 | – | COC1CCCN(C(=O)/C=C/C(C)=C/C=C/C(C)=C/C=C/C=C(C)/C=C/C=C(C)\C=C\C(=O)O)C1 (stereo not shown) [C20, 1-[3-methoxypiperidinamido](2E,4E,6E,8E,10E,12E,14E,16Z,18E)-4,8,13,17-tetramethylicosa-2,4,6,8,10,12,14,16,18-nonaenedioate] | 65.6 | 65.6 | 79 |

The next lines start with the compound.

| Structure (SMILES) | Tmax [2, 4] [min] | Eye Exposure 50 mg/kg p.o. AUC [2] [ng · h/eye] | Eye CMax [2, 4] [ng/eye] | Cmax [3] [ng/mL] | Plasma Exposure [3] [µg·h/mL] | Tmax [3] [min] | Eye Exposure ([2]; mice, p.o. 50 mg/kg in VitE-TPGS 20% in sodium bicarbonate buffer (0.1M), area under the curve) [ng · h/eye] | viability at 5 µM [1] [%] | viability at 10 µM [1] [%] | viability at 20 µM [1] [%] |
| --- | --- | --- | --- | --- | --- | --- | --- | --- | --- | --- |
| CC(=C/C=C/C(C)=C/C=C/C=C(C)/C=C/C=C(C)/C=C/C(=O)N1C[C@@H](C)O[C@@H](C)C1)/C=C/C(=O)O [C15] | 30 | 108.5 | 22.8 | 17300 | 46.99 | 30 | 108.5 | 5.4 | 10 | 58.5 |
| CC(=C/C=C/C(C)=C/C=C/C=C(C)/C=C/C=C(C)/C=C/C(=O)NCCc1ccc(O)cc1)/C=C/C(=O)O [C16, 1-[4-hydroxyphenylethanamido](2E,4E,6E,8E,10E,12E,14E,16Z,18E)-4,8,13,17-tetramethylicosa-2,4,6,8,10,12,14,16,18-nonaenedioate] | 30 | 8.7 | 7.4 | 10500 | 13.23 | 60 | – | 70.2 | 81.7 | 26.8 |
| CC(=C/C=C/C(C)=C/C=C/C=C(C)/C=C/C=C(C)/C=C/C(=O)N1CCC(C(=O)O)CC1)/C=C/C(=O)O [C18, 1-[4-carboxypiperidinamido](2E,4E,6E,8E,10E,12E,14E,16Z,18E)-4,8,13,17-tetramethylicosa-2,4,6,8,10,12,14,16,18-nonaenedioate] | 120 | 307.8 | 27.7 | 61600 | 948.84 | 30 | – | 27.3 | 43.1 | 63.8 |
| CC(=C/C=C/C(C)=C/C=C/C=C(C)/C=C/C=C(C)/C=C/C(=O)N[C@H]1CC[C@H](O)CC1)/C=C/C(=O)O [C19, 1-[(E)-4-hydroxycyclohexamido](2E,4E,6E,8E,10E,12E,14E,16Z,18E)-4,8,13,17-tetramethylicosa-2,4,6,8,10,12,14,16,18-nonaenedioate] | 30 | 37.5 | 5.7 | 6620 | 22.8 | 15 | – | 60.6 | 60.6 | 79.9 |
| CCCOC1CCN(C(=O)/C=C/C(C)=C/C=C/C(C)=C/C=C/C=C(C)/C=C/C=C(C)\C=C\C(=O)O)CC1 [C22, 1-[4-n-propoxypiperidinamido](2E,4E,6E,8E,10E,12E,14E,16Z,18E)-4,8,13,17-tetramethylicosa-2,4,6,8,10,12,14,16,18-nonaenedioate] | 120 | 358.5 | 42.1 | 12800 | 37.25 | 15 | – | 64.5 | 72.8 | 66 |
